Broadly, the AUC(0-t) is the area under the concentration-time curve up to a stated or last time point. Low values mean less exposure, high ones more exposure. By Cmax is commonly meant the maximum level reached in the sampled fluid or tissue. As a reminder, the Tmax is the time at which the peak concentration occurs. For orientation: solubility means how much of the substance goes into solution per volume. As usually defined, the bioavailability is the share of a dose that reaches the circulation, judged against a reference dose that is usually intravenous. One may read the IC50 as the concentration that gives 50% inhibition. A low value points to inhibition by little substance.

Data set [1] can be described thus: Tissue distribution (PK) in BALB/c nude mice bearing human colon cancer LoVo xenografts. In kind it is in vivo. To be noted: mouse, LoVo xenograft mice, oral 40 mg/kg twice a day for three weeks, after last administration. As to the method:
(1) In vivo PD study of the compound used on tumors of human colon cancer LoVo cells subcutaneously xenografted to BALB/c nude mice model
Experimental method: the experimental animals used were BALB/c nude mice (provided by Shanghai Xipuer-Beikai Experimental animal CO., Ltd), 6-8 weeks old, weighting 18-22 g.
Human colon cancer LoVo cells, monolayer-cultured in vitro, culturing condition was Ham's F-12 medium supplemented with 10% fetal bovine serum, 100 U/mL penicillin, 100 μg/mL streptomycin and 2 mM glutamine, 37° C., 5% CO2. Conventional digestion treatment passage was done with trypsin-EDTA twice a week. When the cell saturation reached 80%-90%, the cells were collected, counted, and inoculated. 0.1 mL (10×106) of LoVo cells were subcutaneously inoculated into the right back of each nude mouse, and group administration was started when the average tumor volume reached 213 mm^3. The administration mode was oral administration, 40 mg/kg twice a day for three consecutive weeks.
After the last administration of the experiment, a portion of plasma, tumor, intestine, brain, lung, liver and pancreas was collected from the number 1-2 animals after 0.5 h of administration, and quick-froze for PK detection; a portion of plasma, tumor, intestine, brain, lung, liver and pancreas was collected from the number 3-4 animals after 2 h of administration, and quick-froze for PK detection; a portion of plasma, tumor, intestine, brain, lung, liver and pancreas was collected from the number 5-6 animals after 8 h of administration, and quick-froze for PK detection. The tumor, intestine, brain, lung, liver and pancreas were weighted separately and added 9 times volumes of homogenate MeOH/15 mM PBS (1:2, v:v) for homogenization. 20 μL sample was added into 300 μL of the stop buffer including internal standard for protein precipitation, and shaked to mix well. The mixture was centrifuged at 13,000 rpm for 10 minutes at 20-25° C., and 3 μL of the supernatant was taken for LCMS analysis.
On the technique in general: Xenograft models place foreign cells or tissue in a host animal.

The nature of data set [2]: Thermodynamic solubility determination. Format: physicochemical. The settings on record: for solubility at 24 h: buffer, 22 °C, aqueous buffer, thermodynamic from solid. As to the method:
No less than 2 mg sample powder was weighted in a Whatman miniuniprep vial. If the experiment required to test the thermodynamic solubility of the sample in multiple buffer solutions, then separate vial was required for each test.
[…] After addition of the buffer, the Whatman filter cap of the miniuniprep is mounted and pressed until it was above the liquid level to allow the filter to contact with the buffer solution during shaking. The solubility sample was vortexed for 2 minutes. And the solution phenomenon was recorded. Then the vial was shaked at room temperature (about 22 to 25° C.) for 24 hours at a speed of 550 rpm. And the Whatman Miniunipreps filter cap was pressed to bottom to obtain the filtrate of the solubility solution of the sample. All sample vials should conduct filtration for the insoluble matter before and after and osmotic phenomenon. The […] was diluted 50 times to obtain a sample dilution.
Three UV standard solutions were injected from low to high concentrations into HPLC, and then dilution and supernatant of the test compounds were injected. The sample was injected and tested twice. Integration was conducted to the UV peaks. The standard curve was established and the thermodynamic solubility of the sample was calculated.

The nature of data set [3]: Pharmacokinetic evaluation in BALB/c mice after intravenous and oral administration. Format: in vivo. The settings on record: mouse, plasma, BALB/c mice (female), single intravenous injection and oral administration; for clearance: read-out: Clearance rate; for AUC: read-out: Concentration integral AUC; for half-life: read-out: Half-life T1/2 (converted); for bioavailability: read-out: bioavailability F. As to the method: Experimental objective: pharmacokinetics evaluation of the compound in BALB/c nude mice.
The rodent pharmacological characteristics of the compound after intravenous administration and oral administration were tested by a standard protocol, the candidate compound in the experiment was formulated into a clear solution, and the mice were administered by a single intravenous injection and oral administration. The intravenous and oral vehicles are a certain proportion of aqueous hydroxypropyl 3-cyclodextrin or physiological saline solution.

Data set [4] has as its target Wee1 (Homo sapiens (Human), UniProt P30291). As to the kind of experiment: In vitro enzymatic inhibitory activity (33P-ATP filter-binding kinase assay, MBP substrate). In kind it is biochemical. The settings on record: Wee-1 150 nM, MBP 20 μM. A digest of the protocol: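 Wee1 at 150 nM with 20 μM MBP substrate in pH 7.5 HEPES buffer (10 mM MgCl2, 2 mM DTT, 1% DMSO) was preincubated 20 min at RT with compounds in a 10-point 3-fold dilution series. The reaction was started with ^33P-ATP and run 2 h at RT. Kinase activity was measured by filter binding.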

The mark [5] stands for this setting: pH 6.5, shaken 24 hours at room temperature, read-out: Solubility (μM) pH 6.5.
[6] abbreviates: pH 7.4, shaken 24 hours at room temperature, read-out: Solubility (μM) pH 7.4.

The structures appear in SMILES notation. Values after ≈ are worked out from the molar mass of the structure shown. Read-outs that look alike come from different tables or passages of the source.

Sequence of Wee1 (P30291 whole entry): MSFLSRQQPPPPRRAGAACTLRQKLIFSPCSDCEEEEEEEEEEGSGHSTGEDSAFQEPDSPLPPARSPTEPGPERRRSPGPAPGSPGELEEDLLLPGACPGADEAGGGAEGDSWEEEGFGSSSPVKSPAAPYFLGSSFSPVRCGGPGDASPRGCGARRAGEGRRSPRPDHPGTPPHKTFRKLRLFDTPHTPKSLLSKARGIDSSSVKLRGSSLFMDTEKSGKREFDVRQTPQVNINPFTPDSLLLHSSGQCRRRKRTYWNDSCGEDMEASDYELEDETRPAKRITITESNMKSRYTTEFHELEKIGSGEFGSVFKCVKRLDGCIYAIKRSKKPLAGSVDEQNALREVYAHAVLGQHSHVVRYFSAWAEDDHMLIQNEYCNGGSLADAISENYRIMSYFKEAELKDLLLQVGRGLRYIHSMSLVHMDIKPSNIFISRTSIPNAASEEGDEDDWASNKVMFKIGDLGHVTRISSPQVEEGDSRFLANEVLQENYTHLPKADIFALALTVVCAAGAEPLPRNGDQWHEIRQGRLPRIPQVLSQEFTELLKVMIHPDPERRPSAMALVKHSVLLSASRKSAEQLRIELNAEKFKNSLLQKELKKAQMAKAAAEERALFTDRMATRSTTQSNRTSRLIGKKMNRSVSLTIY

Turning to `C=CCn1c(=O)c2cnc(Nc3ccc(N4CCN(C)CC4)cc3)nc2n1-c1cccc(C(C)(C)O)n1` [AZD1775, reference compound], the AUC(0-t) came to 225 µM·h in data set [1] (Colon); 117 µM·h in data set [1] (liver); 36.5 µM·h in data set [1] (lung); 55.5 µM·h in data set [1] (pancreas); 6.97 µM·h in data set [1] (plasma); 15.3 µM·h in data set [1] (tumer (tumor)). Besides, the Cmax is 238 µM in data set [1] (Colon); 38.1 µM in data set [1] (liver); 17.2 µM in data set [1] (lung); 35.6 µM in data set [1] (pancreas); 3.07 µM in data set [1] (plasma); 3.85 µM in data set [1] (tumer (tumor)). For the same compound, the Tmax in data set [1] (Colon) came out at 0.5 h; in data set [1] (liver), 0.5 h; in data set [1] (lung) it was 0.5 h; in data set [1] (pancreas), 0.5 h; in data set [1] (plasma), 0.5 h; in data set [1] (tumer (tumor)), 2 h. For the same compound, the solubility at 24 h was 434 µM (≈ 217 µg/mL) in data set [2] (setting [5]) and 68.8 µM (≈ 34.4 µg/mL) in data set [2] (setting [6]). Moreover, the clearance in data set [3] turned out to be 85.7 mL/min/kg. Moreover, the AUC in data set [3] worked out at 1.2 µM·h. For the same compound, the half-life in data set [3] was 0.25 h. Further, the bioavailability in data set [3] worked out at 31%.
Consider `C=CCn1c(=O)c2cnc(Nc3ccc(N4CCC5(CCN(C)CC5)CC4)cc3)nc2n1-c1cccc(C(=O)N(C)C)n1` [Embodiment 15, 6-(2-allyl-6-((4-(9-methyl-3,9-diazaspiro[5.5]undecan-3-yl)phenyl)amino)-3-oxo-2,3-dihydro-1H-pyrazolo[3,4-d]pyrimidin-1-yl)-N,N-dimethylpicolinamide], for which, in data set [3], the clearance stood at 57.1 mL/min/kg, the AUC was determined as 1.73 µM·h, the half-life was 1.7 h and the bioavailability stood at 35.3%. In addition, in data set [4], the IC50 amounted to 31.5 nM.
Take `C=CCn1c(=O)c2cnc(Nc3ccc(N4CCC5(CCN(C)CC5)CC4)cc3)nc2n1-c1cccc(C(C)(C)O)n1` [Embodiment 29, 2-allyl-1-(6-(2-hydroxypropan-2-yl)pyridin-2-yl)-6-((4-(9-methyl-3,9-diazaspiro[5.5]undecan-3-yl)phenyl)amino)-1H-pyrazolo[3,4-d]pyrimidin-3(2H)-one]: in data set [2] (setting [5]), the solubility at 24 h was 1470 µM (≈ 835 µg/mL). The solubility at 24 h in data set [2] (setting [6]) was determined as 1050 µM (≈ 595 µg/mL). Further, in data set [2] (in words, compared to AZD1775, pH=6.5 and pH=7.4), the solubility in water result is listed as “excellent solubility in water”. Besides, in data set [3], the clearance was 51 mL/min/kg, the AUC was 2.15 µM·h, the half-life was 1.49 h and the bioavailability amounted to 32.4%. Also, the IC50 in data set [4] worked out at 13.4 nM.
As to `C=CCn1c(=O)c2cnc(Nc3ccc(N4CCC5(CCN(C(C)=O)CC5)CC4)cc3)nc2n1-c1cccc(C(C)(C)O)n1` [Embodiment 30, 6-((4-(9-acetyl-3,9-diazaspiro[5.5]undecan-3-yl)phenyl)amino)-2-allyl-1-(6-(2-hydroxypropan-2-yl)pyridin-2-yl)-1H-pyrazolo[3,4-d]pyrimidin-3(2H)-one], the exposure AUC(0-t) in data set [1] (Brain) came to 2.12 µM·h; in data set [1] (Colon) it was 402 µM·h; in data set [1] (liver) it was 257 µM·h; in data set [1] (lung) it was 74.7 µM·h; in data set [1] (pancreas), 253 µM·h; in data set [1] (plasma), 14.2 µM·h. For the same compound, the AUC(0-t) in data set [1] (tumer (tumor)) was 37.3 µM·h. Further, the Cmax in data set [1] (Brain) amounted to 0.959 µM; in data set [1] (Colon) it was 135 µM; in data set [1] (liver) it was 67.7 µM; in data set [1] (lung) it was 14.6 µM; in data set [1] (pancreas), 49.3 µM; in data set [1] (plasma), 4.27 µM. The same compound displayed a Cmax in data set [1] (tumer (tumor)) of 5.42 µM. Moreover, the Tmax in data set [1] (Brain) turned out to be 0.5 h; in data set [1] (Colon), 0.5 h; in data set [1] (liver), 2 h; in data set [1] (lung) it was 2 h; in data set [1] (pancreas), 2 h; in data set [1] (plasma), 2 h. The Tmax in data set [1] (tumer (tumor)) came out at 8 h. The IC50 in data set [4] worked out at 58.8 nM.
Regarding `C=CCn1c(=O)c2cnc(Nc3ccc(N4CCC5(CCN(C)CC5)CC4)cc3)nc2n1-c1cccc(C2(F)COC2)n1` [Embodiment 43, 2-allyl-1-(6-(3-fluorooxetan-3-yl)pyridin-2-yl)-6-((4-(9-methyl-3,9-diazaspiro[5.5]undecan-3-yl)phenyl)amino)-1H-pyrazolo[3,4-d]pyrimidin-3(2H)-one], in data set [3], the clearance amounted to 23 mL/min/kg, the AUC was found to be 5.59 µM·h, the half-life is 1.81 h and the bioavailability was determined as 45.1%. The compound also yielded an IC50 in data set [4] of 12.1 nM.

Source of the values: patent US10954253B2, “1,2-dihydro-3H-pyrazolo[3,4-d]pyrimidin-3-one derivative as Wee1 inhibitor” (SHIJIAZHUANG SAGACITY NEW DRUG DEVELOPMENT CO., LTD., priority 2017, dated 2021).
